Test results reported in paper PMC7441537 (Journal of medicinal chemistry, 2019).
Values after ≈ are worked out from the molar mass of the structure shown.

Experiments:
[1] = cited from earlier work
RES056 (K103N+Y181C) = details: read-out: EC50 RES056 (previously reported); cited from earlier work
[2] = system: HIV-1 strains carrying single NNRTI-resistant mutations; type: cell-based; details: EC50 mutant/EC50 WT
HIV-1 E138K = type: cell-based; details: MT-4 cells; CC50/EC50
Kunming mice = assay: Acute; type: in vivo; details: 800 mg/kg, 2 weeks, vs control group
HIV-1 L100I = type: cell-based; details: MT-4 cells; CC50/EC50
HIV-1 Y188L = type: cell-based; details: MT-4 cells; CC50/EC50
WT HIV-1 (IIIB) = details: MT-4 cells
HIV-1 Y181C = type: cell-based; details: MT-4 cells; CC50/EC50
HIV-1 F227L+V106A = type: cell-based; details: MT-4 cells; CC50/EC50
HIV-1 K103N = type: cell-based; details: MT-4 cells; CC50/EC50
[3] = system: NNRTI-resistant strain K103N+Y181C (RES056); details: MT-4 cells
in vitro [4] = details: human
[5] = Aqueous solubility measured by HPLC; type: physicochemical; details: aqueous solution, pH 2
mice = assay: Subacute toxicity with HE staining of organs; details: 50 mg/kg, heart, liver, spleen, lungs, kidneys
in vitro [6] = details: human; remark: listed apart in the source

SMILES	SI E138K (HIV-1 E138K)	SI L100I (HIV-1 L100I)	SI Y188L (HIV-1 Y188L)	SI IIIB (CC50/EC50) (WT HIV-1 (IIIB))	SI Y181C (HIV-1 Y181C)	SI F227L+V106A (HIV-1 F227L+V106A)	SI K103N (HIV-1 K103N)	SI RES056 (CC50/EC50) [3]	CC50 (in vitro [4]) [nM]	other results
Cc1cc(C#N)cc(C)c1Oc1nc(NC2CCN(Cc3ccc(S(N)(=O)=O)cc3)CC2)nc2ccsc12 [compound 3]	–	–	–	–	–	–	–	–	–	aqueous solubility (previously reported) [1]: less than 1 μg/mL; EC50 (RES056 (K103N+Y181C)): 30.6 nM
Cc1cc(C#N)cc(C)c1Oc1nc(NC2CCN(Cc3ccc(C(N)=O)cc3)CC2)nc2c1COC2 [13c2, 4-((4-((4-(4-Cyano-2,6-dimethylphenoxy)-5,7-dihydrofuro-[3,4-d]pyrimidin-2-yl)amino)piperidin-1-yl)methyl)benzamide]	> 35714	> 104167	> 29762	>156250	> 56818	> 13158	> 277778	>6039	–	resistance FC values range for single mutant strains [2]: 0.6–5.3; behavior, acute toxicity (Kunming mice): no significant behavior abnormalities
Cc1cc(C#N)cc(C)c1Oc1nc(N[C@H]2CCN(Cc3ccc(S(N)(=O)=O)cc3)C2)nc2ccsc12 [8d1, (S)-4-((3-((4-(4-Cyano-2,6-dimethylphenoxy)thieno[3,2-d]-pyrimidin-2-yl)amino)pyrrolidin-1-yl)methyl)benzenesulfonamide]	–	–	–	–	–	–	–	–	> 233	–
Cc1cc(C#N)cc(C)c1Oc1nc(Nc2ccc(C#N)cc2)nc(N)c1Br [ETV, etravirine]	–	–	–	–	–	–	–	–	–	solubility [5]: 127 µg/mL (≈ 292 µM); aqueous solubility (previously reported) [1]: less than 1 μg/mL; organ toxicity by HE staining (mice): alveolar interstitial thickening and alveolar hemorrhage (the blue arrow) in the lung and proximal convoluted tubule edema (the red circle) in the kidney; EC50 (RES056 (K103N+Y181C)): 17 nM
Cc1cc(C#N)cc(C)c1Oc1nc(NC2CCN(Cc3ccc(S(N)(=O)=O)cc3)CC2)nc2c1CCC2 [13d1, 4-((4-((4-(4-Cyano-2,6-dimethylphenoxy)-6,7-dihydro-5H-cyclopenta[d]pyrimidin-2-yl)amino)piperidin-1-yl)methyl)benzenesulfonamide]	> 5543	> 39683	> 16667	>208333	> 16447	> 6579	> 21186	>9091	–	–
Cc1cc(C#N)cc(C)c1Oc1nc(N[C@H]2CCN(Cc3ccncc3)C2)nc2ccsc12 [8d5, (S)-3,5-Dimethyl-4-((2-((1-(pyridin-4-ylmethyl)pyrrolidin-3-yl)amino)thieno[3,2-d]pyrimidin-4-yl)oxy)benzonitrile]	–	–	–	–	–	–	–	–	> 273	–
Cc1cc(C#N)cc(C)c1Oc1nc(N[C@@H]2CCN(Cc3cccc(C(N)=O)c3)C2)nc2ccsc12 [8c3, (R)-3-((3-((4-(4-Cyano-2,6-dimethylphenoxy)thieno[3,2-d]-pyrimidin-2-yl)amino)pyrrolidin-1-yl)methyl)benzamide]	–	–	–	–	–	–	–	–	> 250	–
Cc1cc(C#N)cc(C)c1Oc1nc(NC2CCN(Cc3ccc(S(N)(=O)=O)cc3)CC2)nc2c1SCCC2 [13f1, 4-((4-((4-(4-Cyano-2,6-dimethylphenoxy)-7,8-dihydro-6H-thiopyrano[3,2-d]pyrimidin-2-yl)amino)piperidin-1-yl)methyl)benzenesulfonamide]	≥ 17435	≥ 11488	≥ 18525	≥54889	≥ 14250	≥ 6645	≥ 28500	≥3650	–	–
Cc1cc(C#N)cc(C)c1Oc1nc(NC2CCN(Cc3cccc(C(N)=O)c3)CC2)nc2c1SCCC2 [13f5, 3-((4-((4-(4-Cyano-2,6-dimethylphenoxy)-7,8-dihydro-6H-thiopyrano[3,2-d]pyrimidin-2-yl)amino)piperidin-1-yl)methyl)benzamide]	–	–	–	–	–	–	–	–	–	CC50 (in vitro [6]): > 4590 nM
Cc1cc(C#N)cc(C)c1Oc1nc(N[C@@H]2CCN(Cc3ccc(S(C)(=O)=O)cc3)C2)nc2ccsc12 [8c4, (R)-3,5-Dimethyl-4-((2-((1-(4-(methylsulfonyl)benzyl)pyrrolidin-3-yl)amino)thieno[3,2-d]pyrimidin-4-yl)oxy)benzonitrile]	–	–	–	–	–	–	–	–	> 234	–
